# Test results reported in patent US12655116B2, “Substituted isophthalic acid diamides” (Bayer Aktiengesellschaft, priority 2020, dated 2026).
# Experiments:
# [1] = system: AMARE; test: Post-emergence herbicidal action against AMARE; format: in vivo, Amaranthus retroflexus; conditions: 20 g/ha, visual assessment about 3 weeks after treatment, 100% = plants have died, 0% = like control plants; for pest or weed control at 20 g/ha: Amaranthus retroflexus, 504 h
# Method in brief: (§1)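 A WP or EC formulation diluted in water with 0.2% wetting agent was sprayed at 600 to 800 l/ha onto one-leaf-stage plants grown in sandy loam. About 3 weeks later, action was rated visually in percent, 100% being dead plants.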
# [2] = system: VIOTR; test: Post-emergence herbicidal action against VIOTR; format: in vivo, Viola tricolor; conditions: Viola tricolor, 504 h, 20 g/ha
# Method in brief: as §1
# [3] = system: MATIN; test: Pre-emergence herbicidal action against MATIN; format: in vivo, Matricaria inodora; conditions: for pest or weed control at 20 g/ha / pest or weed control at 80 g/ha: Tripleurospermum inodorum, 504 h
# Method in brief: (§2)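 Greenhouse pots of sandy loam held seeds covered with soil, onto which the compound was applied before emergence. An aqueous suspension or emulsion of WP or EC was used at 600 to 800 l/ha with 0.2% wetting agent. Percent damage was judged visually at 3 weeks.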
# [4] = system: ECHCG; test: Post-emergence herbicidal action against ECHCG; format: in vivo, Echinochloa crus-galli
# Method in brief: as §1
# [5] = system: VIOTR; test: Pre-emergence herbicidal action against VIOTR; format: in vivo, Viola tricolor; conditions: for pest or weed control at 80 g/ha: Viola tricolor, 504 h
# Method in brief: as §2
# [6] = system: AMARE; test: Pre-emergence herbicidal action against AMARE; format: in vivo, Amaranthus retroflexus; conditions: for pest or weed control at 20 g/ha / pest or weed control at 80 g/ha: Amaranthus retroflexus, 504 h
# Method in brief: as §2
# [7] = system: PHBPU; test: Post-emergence herbicidal action against PHBPU; format: in vivo, Pharbitis purpurea; conditions: dosage 20 g/ha
# Method in brief: as §1
# [8] = system: ECHCG; test: Pre-emergence herbicidal action against ECHCG; format: in vivo, Echinochloa crus-galli
# Method in brief: as §2
# [9] = system: ABUTH; test: Pre-emergence herbicidal action against ABUTH; format: in vivo, Abutilon theophrasti
# Method in brief: as §2
# [10] = system: ALOMY; test: Pre-emergence herbicidal action against ALOMY; format: in vivo, Alopecurus myosuroides; conditions: pre-emergence; for pest or weed control at 80 g/ha / pest or weed control at 20 g/ha: Alopecurus myosuroides, 504 h; for pest or weed control at 20 g/ha: scored visually after 3 weeks, 100% = plants have died, 0% = like control plants
# Method in brief: as §2
# [11] = system: VERPE; test: Pre-emergence herbicidal action against VERPE; format: in vivo, Veronica persica; conditions: dosage 80 g/ha; for pest or weed control at 80 g/ha: Veronica persica, 504 h
# Method in brief: as §2
# [12] = system: PHBPU; test: Pre-emergence herbicidal action against PHBPU; format: in vivo, Pharbitis purpurea; conditions: dosage 80 g/ha; for pest or weed control at 80 g/ha: Ipomoea purpurea, 504 h
# Method in brief: as §2
# [13] = system: ALOMY; test: Post-emergence herbicidal action against ALOMY; format: in vivo, Alopecurus myosuroides; conditions: Alopecurus myosuroides, 504 h, visual assessment about 3 weeks after treatment vs untreated controls
# Method in brief: as §1
# [14] = system: POLCO; test: Pre-emergence herbicidal action against POLCO; format: in vivo, Polygonum convolvulus; conditions: dosage 80 g/ha; for pest or weed control at 80 g/ha: Fallopia convolvulus, 504 h
# Method in brief: as §2
# [15] = system: ABUTH; test: Post-emergence herbicidal action against ABUTH; format: in vivo, Abutilon theophrasti; conditions: Abutilon theophrasti, 504 h, visual assessment about 3 weeks after treatment vs untreated controls; for pest or weed control at 20 g/ha: dosage 20 g/ha
# Method in brief: as §1
# [16] = system: SETVI; test: Pre-emergence herbicidal action against SETVI; format: in vivo, Setaria viridis; conditions: dosage 80 g/ha
# Method in brief: as §2
# [17] = system: AVEFA; test: Pre-emergence herbicidal action against AVEFA; format: in vivo, Avena fatua; conditions: Avena fatua, 504 h, pre-emergence
# Method in brief: as §2
# [18] = system: DIGSA; test: Pre-emergence herbicidal action against DIGSA; format: in vivo, Digitaria sanguinalis
# Method in brief: as §2
# [19] = Echinochloa crus-galli, 504 h, dosage 20 g/ha
# [20] = 20 g/ha, scored visually after 3 weeks vs untreated controls, 100% = plants have died, 0% = like control plants
# [21] = 80 g/ha, scored visually after 3 weeks vs untreated controls, 100% = plants have died, 0% = like control plants
# [22] = Echinochloa crus-galli, 504 h, 80 g/ha
# [23] = Abutilon theophrasti, 504 h, 80 g/ha, scored visually after 3 weeks vs untreated controls (100% = plants have died, 0% = like control plants)
# [24] = 80 g/ha, scored visually after 3 weeks vs untreated controls (100% = plants have died, 0% = like control plants)
compound,measurement,setting,value
CCCNC(=O)c1c(Br)ccc(C(=O)Nc2nnnn2C)c1Cl [Example 1-184],pest or weed control at 20 g/ha,[1],100%
same,pest or weed control at 20 g/ha,[2],90%
same,pest or weed control at 20 g/ha,[3]; dosage 20 g/ha,80%
same,pest or weed control at 80 g/ha,[3]; dosage 80 g/ha,100%
same,pest or weed control at 20 g/ha,[4]; [19],100%
same,pest or weed control at 80 g/ha,[5]; dosage 80 g/ha,90%
same,pest or weed control at 20 g/ha,[6]; [20],100%
same,pest or weed control at 80 g/ha,[6]; [21],100%
same,pest or weed control at 20 g/ha,"[7]; Ipomoea purpurea, 504 h",80%
same,pest or weed control at 80 g/ha,[8]; [22],100%
same,pest or weed control at 80 g/ha,[9]; [23],100%
same,pest or weed control at 80 g/ha,[10]; [24],100%
same,pest or weed control at 20 g/ha,[10],90%
same,pest or weed control at 80 g/ha,[11],90%
same,pest or weed control at 80 g/ha,[12],80%
same,pest or weed control at 5 g/ha,[13]; dosage 5 g/ha,80%
same,pest or weed control at 20 g/ha,[13]; dosage 20 g/ha,80%
same,pest or weed control at 80 g/ha,[14],80%
same,pest or weed control at 5 g/ha,[15]; dosage 5 g/ha,80%
same,pest or weed control at 20 g/ha,[15],80%
Cn1nnnc1NC(=O)c1ccc(C(F)(F)F)c(C(=O)NCC(F)(F)F)c1Br [Example 1-211],pest or weed control at 20 g/ha,[1],90%
same,pest or weed control at 80 g/ha,"[16]; Setaria viridis, 504 h",100%
same,pest or weed control at 20 g/ha,[3]; dosage 20 g/ha,90%
same,pest or weed control at 80 g/ha,[3]; dosage 80 g/ha,100%
same,pest or weed control at 5 g/ha,"[4]; Echinochloa crus-galli, 504 h, dosage 5 g/ha",80%
same,pest or weed control at 20 g/ha,[4]; [19],90%
same,pest or weed control at 80 g/ha,[5]; dosage 80 g/ha,100%
same,pest or weed control at 20 g/ha,[6]; [20],100%
same,pest or weed control at 80 g/ha,[6]; [21],100%
same,pest or weed control at 20 g/ha,"[8]; Echinochloa crus-galli, 504 h, 20 g/ha",90%
same,pest or weed control at 80 g/ha,[8]; [22],100%
same,pest or weed control at 80 g/ha,[9]; [23],100%
same,pest or weed control at 20 g/ha,"[9]; Abutilon theophrasti, 504 h, dosage 20 g/ha, scored visually after 3 weeks vs untreated controls, 100% = plants have died, 0% = like control plants, read-out: Pre-emergence action against ABUTH (herbicidal activity in percent)",100%
same,pest or weed control at 80 g/ha,[10]; [24],100%
same,pest or weed control at 20 g/ha,[10],90%
same,pest or weed control at 80 g/ha,[11],100%
same,pest or weed control at 80 g/ha,[12],80%
same,pest or weed control at 80 g/ha,[17]; 80 g/ha,90%
same,pest or weed control at 20 g/ha,"[17]; 20 g/ha, scored visually after 3 weeks, 100% = plants have died, 0% = like control plants",80%
same,pest or weed control at 80 g/ha,[14],90%
same,pest or weed control at 20 g/ha,[15],80%
CCn1nnnc1NC(=O)c1ccc(C(F)(F)F)c(C(=O)NCCOC)c1Cl [Example 2-138],Post-emergence action at 20 g/ha against AMARE in %,[1],90%
same,Pre-emergence action against SETVI in %,[16],80%
same,Pre-emergence action against MATIN in %,[3]; dosage 20 g/ha,90%
same,Pre-emergence action against MATIN in %,[3]; dosage 80 g/ha,100%
same,Pre-emergence action against DIGSA in %,[18]; dosage 20 g/ha,100%
same,Pre-emergence action against DIGSA in %,[18]; dosage 80 g/ha,100%
same,Post-emergence action against ECHCG in %,[4]; dosage 5 g/ha,80%
same,Post-emergence action against ECHCG in %,[4]; dosage 20 g/ha,90%
same,Pre-emergence action against VIOTR in %,[5]; dosage 20 g/ha,90%
same,Pre-emergence action against VIOTR in %,[5]; dosage 80 g/ha,100%
same,Pre-emergence action against AMARE in %,[6]; [20],100%
same,Pre-emergence action against AMARE in %,[6]; [24],100%
same,Post-emergence action against PHBPU in %,[7],80%
same,Pre-emergence action against ECHCG in %,[8]; 80 g/ha,90%
same,Pre-emergence action against ABUTH (herbicidal activity),[9]; [24],100%
same,Pre-emergence action against ABUTH (herbicidal activity in percent),"[9]; dosage 20 g/ha, scored visually after 3 weeks vs untreated controls, 100% = plants have died, 0% = like control plants",80%
same,Pre-emergence action against ALOMY (herbicidal activity),[10]; [24],90%
same,Pre-emergence action against VERPE in %,[11],100%
same,Pre-emergence action against PHBPU in %,[12],80%
same,Pre-emergence action against POLCO in %,[14],90%
